Patent publication US20250230193A1, “CYCLIC COMPOUND HAVING SELECTIVE KRAS INHIBITORY EFFECT ON HRAS AND NRAS” (CHUGAI SEIYAKU KABUSHIKI KAISHA, priority 2022, published 2025)

Key:
[1] = biological target: GDP-bound NRAS wild-type protein (Homo sapiens, UniProt P01111); assay: Binding to NRAS by surface plasmon resonance (SPR), Single Cycle Kinetics; settings: KD ratio NRAS/KRAS, SPR, GDP-bound wild-type proteins
[2] = biological target: GDP-bound HRAS wild-type protein (Homo sapiens, UniProt P01112); assay: Binding to HRAS by surface plasmon resonance (SPR), Single Cycle Kinetics; settings: KD ratio HRAS/KRAS, SPR, GDP-bound wild-type proteins
Chain of GDP-bound HRAS wild-type protein (P01112 whole entry): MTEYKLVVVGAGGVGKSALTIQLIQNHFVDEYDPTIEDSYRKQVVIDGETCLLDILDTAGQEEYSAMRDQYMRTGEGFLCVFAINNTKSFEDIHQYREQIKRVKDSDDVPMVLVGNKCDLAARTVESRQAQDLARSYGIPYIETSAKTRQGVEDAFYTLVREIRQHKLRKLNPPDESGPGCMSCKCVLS

Chain of GDP-bound NRAS wild-type protein (P01111 whole entry): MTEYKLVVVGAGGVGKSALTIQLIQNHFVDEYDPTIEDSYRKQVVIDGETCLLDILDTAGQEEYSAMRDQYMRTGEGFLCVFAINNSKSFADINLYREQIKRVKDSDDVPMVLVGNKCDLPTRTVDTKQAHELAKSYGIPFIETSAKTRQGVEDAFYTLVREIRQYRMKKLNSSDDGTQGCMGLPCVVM

Compound | NRAS/KRAS (ratio of KD value with respect to GDP-bound NRAS wild-type protein to KD value with respect to KRAS) [1] | HRAS/KRAS (ratio of KD value with respect to GDP-bound HRAS wild-type protein to KD value with respect to KRAS) [2]
CCC[C@H]1C(=O)N[C@@H]([C@@H](C)CC)C(=O)N(C)CC(=O)N(C)[C@H]2C/C=C\CCN(C2=O)[C@@H](Cc2ccc(C(F)(F)F)cc2)C(=O)N(C)CC(=O)N[C@@H](CCc2ccc(C(F)(F)F)c(Cl)c2)C(=O)N2CC3(CC3)C[C@H]2C(=O)NC2(CC(C)(C)C2)C(=O)N(C)[C@@H](CC(F)(F)F)C(=O)N(C)[C@H](C(=O)N(C)C)CC(=O)N1C [PP2985] | AA (a compound having 20 or more is denoted as AA) | A (a compound having 10 or more and less than 20 is denoted as A)
CCC[C@H]1C(=O)N[C@@H](C2CCCC2)C(=O)N(C)CC(=O)N(C)[C@H]2C/C=C\CCN(C2=O)[C@@H](Cc2ccc(C(F)(F)F)cc2)C(=O)N(C)CC(=O)N[C@@H](CCc2ccc(C(F)(F)F)c(Cl)c2)C(=O)N2CC3(CC3)C[C@H]2C(=O)NC2(CC(C)(C)C2)C(=O)N(C)[C@@H](C2CCCC2)C(=O)N(C)[C@H](C(=O)N(C)C)CC(=O)N1C [PP2986] | AA (a compound having 20 or more is denoted as AA) | A (a compound having 10 or more and less than 20 is denoted as A)
CCC[C@H]1C(=O)N[C@@H]([C@@H](C)CC)C(=O)N(C)CC(=O)N(C)[C@H]2C/C=C\CCN(C2=O)[C@@H](Cc2ccc(C(F)(F)F)cc2)C(=O)N(C)CC(=O)N[C@@H](CCc2ccc(C(F)(F)F)c(Cl)c2)C(=O)N2CC3(CC3)C[C@H]2C(=O)NC2(CC(C)(C)C2)C(=O)N(C)[C@@H](CC(C)C)C(=O)N(C)[C@H](C(=O)N(C)C)CC(=O)N1C [PP2987] | AA (a compound having 20 or more is denoted as AA) | A (a compound having 10 or more and less than 20 is denoted as A)
CCC[C@H]1C(=O)N[C@@H](C2CCCC2)C(=O)N(C)CC(=O)N(C)[C@H]2C/C=C\CCN(C2=O)[C@@H](Cc2ccc(C)cc2)C(=O)N(C)CC(=O)N[C@@H](CCc2cc(F)c(C(F)(F)F)c(F)c2)C(=O)N2C[C@H](OCC)C[C@H]2C(=O)NC2(CC(C)(C)C2)C(=O)N(C)[C@@H](C2CCCC2)C(=O)N(C)[C@H](C(=O)N(C)C)CC(=O)N1C [PP2988] | B (a compound having 3 or more and less than 10 is denoted as B) | B (a compound having 3 or more and less than 10 is denoted as B)
CCC[C@H]1C(=O)N[C@@H](C2CCCC2)C(=O)N(C)CC(=O)N(C)[C@H]2C/C=C\CCN(C2=O)[C@@H](Cc2ccc(C)cc2)C(=O)N(C)CC(=O)N[C@@H](CCc2cc(F)c(C(F)(F)F)c(F)c2)C(=O)N2C[C@H](OCC)C[C@H]2C(=O)NC2(CC(C)(C)C2)C(=O)N(C)[C@@H](CC(C)(C)C)C(=O)N(C)[C@H](C(=O)N(C)C)CC(=O)N1C [PP2989] | AA (a compound having 20 or more is denoted as AA) | A (a compound having 10 or more and less than 20 is denoted as A)
CCC[C@H]1C(=O)N[C@@H](C2CCCC2)C(=O)N(C)CC(=O)N(C)[C@H]2C/C=C\CCN(C2=O)[C@@H](Cc2ccc(C)cc2)C(=O)N(C)CC(=O)N[C@@H](CCc2ccc(C(F)(F)F)c(OC)c2)C(=O)N2C[C@H](OCC)C[C@H]2C(=O)NC2(CC(C)(C)C2)C(=O)N(C)[C@@H](C2CCCC2)C(=O)N(C)[C@H](C(=O)N(C)C)CC(=O)N1C [PP2992] | AA (a compound having 20 or more is denoted as AA) | A (a compound having 10 or more and less than 20 is denoted as A)
CCC[C@H]1C(=O)N[C@@H]([C@@H](C)CC)C(=O)N(C)CC(=O)N(C)[C@H]2C/C=C\CCN(C2=O)[C@@H](Cc2ccc(C)cc2)C(=O)N(C)CC(=O)N[C@@H](CCc2cc(F)c(C(F)(F)F)c(F)c2)C(=O)N2C[C@H](OCC)C[C@H]2C(=O)NC2(CC(C)(C)C2)C(=O)N(C)[C@@H](CC(F)(F)F)C(=O)N(C)[C@H](C(=O)N(C)C)CC(=O)N1C [PP2993] | A (a compound having 10 or more and less than 20 is denoted as A) | A (a compound having 10 or more and less than 20 is denoted as A)
CCC[C@H]1C(=O)N[C@@H](C2CCCC2)C(=O)N(C)CC(=O)N(C)[C@H]2C/C=C\CCN(C2=O)[C@@H](Cc2ccc(C)cc2)C(=O)N(C)CC(=O)N[C@@H](CCc2ccc(C(F)(F)F)c(OC)c2)C(=O)N2CC3(CC3)C[C@H]2C(=O)NC2(CC(C)(C)C2)C(=O)N(C)[C@@H](C2CCCC2)C(=O)N(C)[C@H](C(=O)N(C)C)CC(=O)N1C [PP2994] | AA (a compound having 20 or more is denoted as AA) | A (a compound having 10 or more and less than 20 is denoted as A)
CCC[C@H]1C(=O)N[C@@H]([C@@H](C)CC)C(=O)N(C)CC(=O)N(C)[C@H]2C/C=C\CCN(C2=O)[C@@H](Cc2ccc(C)cc2)C(=O)N(C)CC(=O)N[C@@H](CCc2cc(F)c(C(F)(F)F)c(F)c2)C(=O)N2C[C@H](OCC)C[C@H]2C(=O)NC2(CC(C)(C)C2)C(=O)N(C)[C@@H](CC(C)C)C(=O)N(C)[C@H](C(=O)N(C)C)CC(=O)N1C [PP2995] | A (a compound having 10 or more and less than 20 is denoted as A) | A (a compound having 10 or more and less than 20 is denoted as A)
CCC[C@H]1C(=O)N[C@@H](C2CCCCC2)C(=O)N(C)CC(=O)N(C)[C@H]2C/C=C\CCN(C2=O)[C@@H](Cc2ccc(C(F)(F)F)cc2)C(=O)N(C)CC(=O)N[C@@H](CCc2ccc(C(F)(F)F)c(Cl)c2)C(=O)N2C[C@H](OCC)C[C@H]2C(=O)NC2(CC(C)(C)C2)C(=O)N(C)[C@@H](C2CCCC2)C(=O)N(C)[C@H](C(=O)N(C)C)CC(=O)N1C [PP2996] | AA (a compound having 20 or more is denoted as AA) | A (a compound having 10 or more and less than 20 is denoted as A)
CCC[C@H]1C(=O)N[C@@H]([C@@H](C)CC)C(=O)N(C)CC(=O)N(C)[C@H]2C/C=C\CCN(C2=O)[C@@H](Cc2ccc(C)cc2)C(=O)N(C)CC(=O)N[C@@H](CCc2cc(F)c(C(F)(F)F)c(F)c2)C(=O)N2CC3(CC3)C[C@H]2C(=O)NC2(CC(C)(C)C2)C(=O)N(C)[C@@H](CC(C)(C)C)C(=O)N(C)[C@H](C(=O)N(C)C)CC(=O)N1C [PP2997] | A (a compound having 10 or more and less than 20 is denoted as A) | B (a compound having 3 or more and less than 10 is denoted as B)
CCC[C@H]1C(=O)N[C@@H](C2CCCCC2)C(=O)N(C)CC(=O)N(C)[C@H]2C/C=C\CCN(C2=O)[C@@H](Cc2ccc(C)cc2)C(=O)N(C)CC(=O)N[C@@H](CCc2ccc(C(F)(F)F)c(Cl)c2)C(=O)N2C[C@H](OCC)C[C@H]2C(=O)NC2(CC(C)(C)C2)C(=O)N(C)[C@@H](C2CCCC2)C(=O)N(C)[C@H](C(=O)N(C)C)CC(=O)N1C [PP2998] | A (a compound having 10 or more and less than 20 is denoted as A) | AA (a compound having 20 or more is denoted as AA)
CCC[C@H]1C(=O)N[C@@H](C2CCCC2)C(=O)N(C)CC(=O)N(C)[C@H]2C/C=C\CCN(C2=O)[C@@H](Cc2ccc(C)cc2)C(=O)N(C)CC(=O)N[C@@H](CCc2cc(F)c(C(F)(F)F)c(F)c2)C(=O)N2CC3(CC3)C[C@H]2C(=O)NC2(CC(C)(C)C2)C(=O)N(C)[C@@H](CC(C)(C)C)C(=O)N(C)[C@H](C(=O)N(C)C)CC(=O)N1C [PP2999] | AA (a compound having 20 or more is denoted as AA) | A (a compound having 10 or more and less than 20 is denoted as A)
CCC[C@H]1C(=O)N[C@@H](C2CCOCC2)C(=O)N(C)CC(=O)N(C)[C@H]2C/C=C\CCN(C2=O)[C@@H](Cc2ccc(C(F)(F)F)cc2)C(=O)N(C)CC(=O)N[C@@H](CCc2ccc(C(F)(F)F)c(Cl)c2)C(=O)N2C[C@H](OCC)C[C@H]2C(=O)NC2(CC(C)(C)C2)C(=O)N(C)[C@@H](C2CCCC2)C(=O)N(C)[C@H](C(=O)N(C)C)CC(=O)N1C [PP3000] | AA (a compound having 20 or more is denoted as AA) | A (a compound having 10 or more and less than 20 is denoted as A)
CCC[C@H]1C(=O)N[C@@H](C2CCOCC2)C(=O)N(C)CC(=O)N(C)[C@H]2C/C=C\CCN(C2=O)[C@@H](Cc2ccc(C)cc2)C(=O)N(C)CC(=O)N[C@@H](CCc2ccc(C(F)(F)F)c(Cl)c2)C(=O)N2C[C@H](OCC)C[C@H]2C(=O)NC2(CC(C)(C)C2)C(=O)N(C)[C@@H](C2CCCC2)C(=O)N(C)[C@H](C(=O)N(C)C)CC(=O)N1C [PP3002] | A (a compound having 10 or more and less than 20 is denoted as A) | A (a compound having 10 or more and less than 20 is denoted as A)
CCC[C@H]1C(=O)N[C@@H]([C@@H](C)CC)C(=O)N(C)CC(=O)N(C)[C@H]2C/C=C\CCN(C2=O)[C@@H](Cc2ccc(C)cc2)C(=O)N(C)CC(=O)N[C@@H](CCc2cc(F)c(C(F)(F)F)c(F)c2)C(=O)N2CC3(CC3)C[C@H]2C(=O)NC2(CC(C)(C)C2)C(=O)N(C)[C@@H](CC(F)(F)F)C(=O)N(C)[C@H](C(=O)N(C)C)CC(=O)N1C [PP3003] | AA (a compound having 20 or more is denoted as AA) | A (a compound having 10 or more and less than 20 is denoted as A)
